According to patent US20250136606A1, “MODULATORS OF TRPML, THEIR COMPOSITIONS AND METHODS OF USE” (Caraway Therapeutics, Inc., priority 2021, published 2025):
Like-named read-outs stand apart in the source and are kept apart here.

Columns and labels:
Type in all cases: cell-based
[1] = target: TRPML1 (Homo sapiens, UniProt Q9GZU1); assay: Fluorescent TRPML1 assay (Fluo4-AM calcium fluorescence in doxycycline-induced HEK-293 Trex cells)
Outline: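 hTRPML1 (mutated for cell-surface expression) in HEK-293 Trex, dox 0.5 ug/mL o/n; Fluo4-AM 1 uM ~60 min, then ~60 min de-esterification, dark; modified Ringer's + 10 mM Ca. Cmpds 20 uM–6 nM final, half-log, n=3. Ex480/Em540; % activity vs ctrls; EC50 by nonlinear regression.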

[2] = target: T1, TRPML2 (Homo sapiens, UniProt Q8IZK6); assay: Fluorescent TRPML2 assay (performed as for TRPML1, substituting the TRPML2 subtype)
T1 construct: expressed in transfected cells
T1 sequence (Q8IZK6 1-566): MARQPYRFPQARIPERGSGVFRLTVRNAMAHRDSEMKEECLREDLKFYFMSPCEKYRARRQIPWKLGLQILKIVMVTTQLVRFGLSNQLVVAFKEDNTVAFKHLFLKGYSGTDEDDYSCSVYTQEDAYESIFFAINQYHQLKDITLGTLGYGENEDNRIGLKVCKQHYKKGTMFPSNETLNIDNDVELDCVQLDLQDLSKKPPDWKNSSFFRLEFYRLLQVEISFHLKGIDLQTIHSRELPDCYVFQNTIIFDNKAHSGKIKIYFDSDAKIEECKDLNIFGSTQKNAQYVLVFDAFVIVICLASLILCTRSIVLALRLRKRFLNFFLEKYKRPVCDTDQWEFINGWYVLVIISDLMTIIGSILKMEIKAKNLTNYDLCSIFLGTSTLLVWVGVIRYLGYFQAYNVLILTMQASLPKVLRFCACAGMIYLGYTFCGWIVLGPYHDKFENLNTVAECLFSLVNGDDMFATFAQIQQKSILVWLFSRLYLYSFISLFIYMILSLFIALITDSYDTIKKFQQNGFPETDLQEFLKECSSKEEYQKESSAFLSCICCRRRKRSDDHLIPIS
Outline: (§1)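 Calcium-influx readout: Fluo4 fluorescence at 480/540 nm, normalised to positive and negative controls per plate, EC50 fitted by non-linear regression. Cells were HEK-293 Trex stable lines, channel expression induced overnight with 0.5 ug/mL doxycycline; tested at 20 micromolar down to 6 nanomolar final, half-log steps, triplicate.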

[3] = target: T2, TRPML3 (Homo sapiens, UniProt Q8TDD5); assay: Fluorescent TRPML3 assay (performed as for TRPML1, substituting the TRPML3 subtype)
T2 construct: expressed in transfected cells
T2 sequence (Q8TDD5 1-553): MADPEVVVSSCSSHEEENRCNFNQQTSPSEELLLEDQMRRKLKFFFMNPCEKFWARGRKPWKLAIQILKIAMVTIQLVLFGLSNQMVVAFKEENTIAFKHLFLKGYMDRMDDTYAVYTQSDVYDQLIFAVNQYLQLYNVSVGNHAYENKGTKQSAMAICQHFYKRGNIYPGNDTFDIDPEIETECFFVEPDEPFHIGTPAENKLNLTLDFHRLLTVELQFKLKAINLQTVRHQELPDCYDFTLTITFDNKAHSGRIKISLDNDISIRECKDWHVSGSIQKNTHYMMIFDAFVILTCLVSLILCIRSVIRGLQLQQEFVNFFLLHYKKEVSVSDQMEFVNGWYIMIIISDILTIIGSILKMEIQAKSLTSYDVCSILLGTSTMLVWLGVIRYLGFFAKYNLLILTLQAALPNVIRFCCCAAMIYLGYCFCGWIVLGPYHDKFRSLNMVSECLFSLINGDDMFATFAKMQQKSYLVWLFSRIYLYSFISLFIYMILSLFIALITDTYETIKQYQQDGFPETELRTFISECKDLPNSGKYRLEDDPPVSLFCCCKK
Outline: as §1

Chain of TRPML1 (Q9GZU1 whole entry L15A/L16A/L577A/L578A, form open): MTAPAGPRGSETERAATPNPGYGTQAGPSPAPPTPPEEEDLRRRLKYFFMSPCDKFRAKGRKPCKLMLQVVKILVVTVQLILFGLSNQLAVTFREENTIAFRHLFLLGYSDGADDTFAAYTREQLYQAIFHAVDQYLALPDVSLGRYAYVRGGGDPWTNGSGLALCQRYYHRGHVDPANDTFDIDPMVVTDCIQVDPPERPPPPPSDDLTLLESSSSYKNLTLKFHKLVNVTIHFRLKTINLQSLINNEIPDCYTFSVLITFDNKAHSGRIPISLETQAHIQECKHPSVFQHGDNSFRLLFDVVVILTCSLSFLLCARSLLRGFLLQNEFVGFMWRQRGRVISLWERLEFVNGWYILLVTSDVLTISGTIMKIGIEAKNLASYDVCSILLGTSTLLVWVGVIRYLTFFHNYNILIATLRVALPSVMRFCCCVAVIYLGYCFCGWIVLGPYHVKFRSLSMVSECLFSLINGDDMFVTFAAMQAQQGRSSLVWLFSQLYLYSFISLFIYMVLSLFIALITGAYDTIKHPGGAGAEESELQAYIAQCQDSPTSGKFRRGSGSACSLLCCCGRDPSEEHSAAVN

Row | SMILES | EC50 ([1]; fluorescent calcium assay) [nM] | EC50 ([2]; fluorescent calcium assay) [nM] | EC50 ([3]; fluorescent calcium assay) [nM] | EC50 [1] [nM] | EC50 [2] [nM] | EC50 [3] [nM]
1 | Cc1cncc(-n2cc(C3CC3)c3c(N4CCN(C(=O)OC(C)(C)C)CC4)ncnc32)c1 [Compound 149, tert-butyl 4-(5-cyclopropyl-7-(5-methylpyridin-3-yl)-7H-pyrrolo[2,3-d]pyrimidin-4-yl)piperazine-1-carboxylate] | 100 to 500 | 500 to 2000 | 100 to 500 | – | – | –
2 | COc1cccc(-n2cc(C3CC3)c3c(N4CCN(C(=O)OC(C)(C)C(F)(F)F)C[C@@H]4C)ncnc32)c1 [Compound 263, 1,1,1-trifluoro-2-methylpropan-2-yl (S)-4-(5-cyclopropyl-7-(3-methoxyphenyl)-7H-pyrrolo[2,3-d]pyrimidin-4-yl)-3-methylpiperazine-1-carboxylate] | 100 to 500 | 500 to 2000 | 100 to 500 | – | – | –
3 | CCCOc1cn(-c2cc(C#N)ccn2)c2ncnc(N3CCN(C(=O)OC(C)(C)C)C[C@@H]3C)c12 [Compound 487, tert-butyl (S)-4-(7-(4-cyanopyridin-2-yl)-5-propoxy-7H-pyrrolo[2,3-d]pyrimidin-4-yl)-3-methylpiperazine-1-carboxylate] | < 100 | < 100 | < 100 | – | – | –
4 | C[C@H]1CN(C(=O)OC(C)(C)C)CCN1c1ncnc2c1c(-c1nccnc1C(F)(F)F)cn2-c1cccc(Cl)c1 [Compound 273, tert-butyl (S)-4-(7-(3-chlorophenyl)-5-(3-(trifluoromethyl)pyrazin-2-yl)-7H-pyrrolo[2,3-d]pyrimidin-4-yl)-3-methylpiperazine-1-carboxylate] | 100 to 500 | 500 to 2000 | 100 to 500 | – | – | –
5 | C[C@H]1CN(C(=O)OC(C)(C)C)CCN1c1ncnc2c1c(C1CC1)cn2C1CCCN(C#N)C1 (stereo partly drawn) [Compound 410, tert-butyl (3S)-4-(7-(1-cyanopiperidin-3-yl)-5-cyclopropyl-7H-pyrrolo[2,3-d]pyrimidin-4-yl)-3-methylpiperazine-1-carboxylate] | 500 to 2000 | > 2000 | 500 to 2000 | – | – | –
6 | CC(C)OC(=O)N1C[C@H](C)N(c2ncnc3c2c(-c2ccccc2F)cn3-c2cnn(C)c2)C[C@H]1C [Compound 252, isopropyl (2R,5S)-4-(5-(2-fluorophenyl)-7-(1-methyl-1H-pyrazol-4-yl)-7H-pyrrolo[2,3-d]pyrimidin-4-yl)-2,5-dimethylpiperazine-1-carboxylate] | 100 to 500 | > 2000 | 100 to 500 | – | – | –
7 | C[C@H]1CN(C(=O)OC(C)(C)C)CCN1c1ncnc2c1c(C1CC1)cn2-c1cccc(Cl)c1 [Compound 139, tert-butyl (S)-4-(7-(3-chlorophenyl)-5-cyclopropyl-7H-pyrrolo[2,3-d]pyrimidin-4-yl)-3-methylpiperazine-1-carboxylate] | < 100 | < 100 | < 100 | – | – | –
8 | C[C@@H]1CN(c2ncnc3c2c(C2CCC2)cn3-c2cccc(F)c2)[C@@H](C)CN1C(=O)OC(C)(C)C [Compound 646, tert-butyl (2R,5S)-4-(5-cyclobutyl-7-(3-fluorophenyl)-7H-pyrrolo[2,3-d]pyrimidin-4-yl)-2,5-dimethylpiperazine-1-carboxylate] | – | – | – | 500 to 2000 | > 2000 | 100 to 500
9 | C[C@H]1CN(C(=O)OC(C)(C)C)CCN1c1ncnc2c1c(C1CC1)cn2-c1cc(Cl)cc(Cl)c1 [Compound 129, tert-butyl (S)-4-(5-cyclopropyl-7-(3,5-dichlorophenyl)-7H-pyrrolo[2,3-d]pyrimidin-4-yl)-3-methylpiperazine-1-carboxylate] | < 100 | 100 to 500 | < 100 | – | – | –
10 | C[C@H]1CN(C(=O)OC(C)(C)C)CCN1c1ncnc2c1c(N(C)C1CC1)cn2-c1cccc(Cl)c1 [Compound 522, tert-butyl (S)-4-(7-(3-chlorophenyl)-5-(cyclopropyl(methyl)amino)-7H-pyrrolo[2,3-d]pyrimidin-4-yl)-3-methylpiperazine-1-carboxylate] | – | – | – | 100 to 500 | 100 to 500 | < 100
11 | C[C@H]1CN(C(=O)OC(C)(C)C)CCN1c1ncnc2c1c(C1(C)CC1)cn2-c1cc(C#N)ccn1 [Compound 411, tert-butyl (S)-4-(7-(4-cyanopyridin-2-yl)-5-(1-methylcyclopropyl)-7H-pyrrolo[2,3-d]pyrimidin-4-yl)-3-methylpiperazine-1-carboxylate] | < 100 | < 100 | < 100 | – | – | –
12 | C[C@@H]1CN(c2ncnc3c2c(-c2ccccc2F)cn3-c2ncc(C#N)s2)[C@@H](C)CN1C(=O)OC(C)(C)C [Compound 434, tert-butyl (2R,5S)-4-(7-(5-cyanothiazol-2-yl)-5-(2-fluorophenyl)-7H-pyrrolo[2,3-d]pyrimidin-4-yl)-2,5-dimethylpiperazine-1-carboxylate] | < 100 | < 100 | < 100 | – | – | –
13 | CC(C)(C)OC(=O)N1CCN(c2ncnc3c2c(-c2ccccc2F)cn3-c2cc(C#N)ccn2)C(C)(C)C1 [Compound 420, tert-butyl 4-(7-(4-cyanopyridin-2-yl)-5-(2-fluorophenyl)-7H-pyrrolo[2,3-d]pyrimidin-4-yl)-3,3-dimethylpiperazine-1-carboxylate] | < 100 | < 100 | < 100 | – | – | –
14 | C[C@H]1CN(C(=O)OC(C)(C)C)CCN1c1ncnc2c1c(-c1ccncc1)cn2-c1cc(F)cc(F)c1 [Compound 241, tert-butyl-(S)-4-(7-(3,5-difluorophenyl)-5-(pyridin-4-yl)-7H-pyrrolo[2,3-d]pyrimidin-4-yl)-3-methylpiperazine-1-carboxylate] | 100 to 500 | 500 to 2000 | 100 to 500 | – | – | –
15 | C[C@H]1CN(C(=O)OC(C)(C)C(F)(F)F)CCN1c1ncnc2c1c(C1CC1)cn2-c1cccc(OC(F)(F)F)c1 [Compound 265, 1,1,1-trifluoro-2-methylpropan-2-yl (S)-4-(5-cyclopropyl-7-(3-(trifluoromethoxy)phenyl)-7H-pyrrolo[2,3-d]pyrimidin-4-yl)-3-methylpiperazine-1-carboxylate] | < 100 | 100 to 500 | < 100 | – | – | –
16 | C[C@H]1CN(C(=O)OC(C)(C)C)CCN1c1ncnc2c1c(C1CC1)cn2-c1ccc(F)c(OC(F)(F)F)c1 [Compound 387, tert-butyl (S)-4-(5-cyclopropyl-7-(4-fluoro-3-(trifluoromethoxy)phenyl)-7H-pyrrolo[2,3-d]pyrimidin-4-yl)-3-methylpiperazine-1-carboxylate] | 500 to 2000 | 100 to 500 | < 100 | – | – | –
17 | C[C@H]1CN(C(=O)OC(C)(C)C)CCN1c1ncnc2c1c(-c1ccncn1)cn2-c1cccc(Cl)c1 [Compound 115, tert-butyl (S)-4-(7-(3-chlorophenyl)-5-(pyrimidin-4-yl)-7H-pyrrolo[2,3-d]pyrimidin-4-yl)-3-methylpiperazine-1-carboxylate] | 100 to 500 | 500 to 2000 | 100 to 500 | – | – | –
18 | [2H]C([2H])([2H])[C@@H]1CN(c2ncnc3c(-c4cc(C#N)ccn4)cn(-c4ccccc4F)c23)[C@@H](C)CN1C(=O)OC(C)(C)C [Compound 709, tert-butyl (2R,5S)-4-(7-(4-cyanopyridin-2-yl)-5-(2-fluorophenyl)-5H-pyrrolo[3,2-d]pyrimidin-4-yl)-5-methyl-2-(methyl-d3)piperazine-1-carboxylate] | – | – | – | < 100 | < 100 | < 100
